Data reported in EP0733369A1, “Protease inhibitors, a DNA construct for the expression of a protease and a process for measuring proteases and/or protease inhibitors” (Stichting REGA V.Z.W., priority 1995, dated 1996).
Entries after “also recorded” stand apart in the source; their conditions may differ.

Tests used:
u-PA = u-PA (Homo sapiens, UniProt P00749); assay: ID50 on homogeneous enzyme; type: biochemical
t-PA = t-PA (Homo sapiens, UniProt P00750); assay: ID50 on homogeneous enzyme; type: biochemical
Gelatinase B [1] = molecular target: T1, Gelatinase B (Homo sapiens, UniProt P14780); assay: ID50 on homogeneous enzyme; type: biochemical
Target sequence in this assay (P14780 107-707): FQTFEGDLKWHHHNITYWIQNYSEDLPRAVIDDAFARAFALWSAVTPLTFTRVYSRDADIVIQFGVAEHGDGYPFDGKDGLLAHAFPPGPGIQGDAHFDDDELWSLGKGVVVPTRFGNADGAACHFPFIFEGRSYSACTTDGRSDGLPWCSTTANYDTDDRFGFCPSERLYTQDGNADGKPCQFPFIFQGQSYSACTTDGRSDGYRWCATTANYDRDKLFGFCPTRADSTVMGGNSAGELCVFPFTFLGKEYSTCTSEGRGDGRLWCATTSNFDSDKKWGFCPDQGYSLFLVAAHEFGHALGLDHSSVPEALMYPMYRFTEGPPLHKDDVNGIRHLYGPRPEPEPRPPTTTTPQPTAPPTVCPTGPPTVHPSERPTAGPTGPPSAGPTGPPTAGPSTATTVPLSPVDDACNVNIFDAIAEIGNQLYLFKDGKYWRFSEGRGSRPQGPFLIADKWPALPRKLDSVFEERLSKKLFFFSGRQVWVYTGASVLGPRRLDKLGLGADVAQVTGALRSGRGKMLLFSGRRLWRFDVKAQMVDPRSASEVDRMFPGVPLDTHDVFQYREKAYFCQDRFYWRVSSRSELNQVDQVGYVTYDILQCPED

Gelatinase A = molecular target: T2, Gelatinase A (Homo sapiens, UniProt P08253); assay: zymography of cerebrospinal fluid of MS / optic neuritis patients with inhibitor; type: biochemical; settings: CSF of MS patients, increasing concentrations
T2 construct: from tissue; host or cells: cerebrospinal fluid of patients with multiple sclerosis or optic neuritis
T2 sequence (P08253 110-660): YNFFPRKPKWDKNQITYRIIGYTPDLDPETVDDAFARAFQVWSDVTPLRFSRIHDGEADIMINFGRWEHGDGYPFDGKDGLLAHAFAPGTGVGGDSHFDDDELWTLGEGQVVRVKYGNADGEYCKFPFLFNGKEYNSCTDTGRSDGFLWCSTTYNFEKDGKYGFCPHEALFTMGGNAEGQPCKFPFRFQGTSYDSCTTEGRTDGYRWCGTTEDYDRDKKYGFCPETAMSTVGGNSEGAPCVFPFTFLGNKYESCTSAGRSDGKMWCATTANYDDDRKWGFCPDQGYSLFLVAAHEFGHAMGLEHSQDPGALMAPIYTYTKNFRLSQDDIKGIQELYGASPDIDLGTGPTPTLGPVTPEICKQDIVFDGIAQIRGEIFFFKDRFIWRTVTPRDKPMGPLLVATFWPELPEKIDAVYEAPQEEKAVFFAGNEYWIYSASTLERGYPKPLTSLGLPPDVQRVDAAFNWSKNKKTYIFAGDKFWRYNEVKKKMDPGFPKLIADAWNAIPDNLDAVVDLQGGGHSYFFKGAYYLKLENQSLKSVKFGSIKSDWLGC
Procedure: (§1) Quantitative zymography was performed as described (7,8). Briefly, 40 µl of loading buffer was added to 40 µl of each sample and applied on 7.5% polyacrylamide gels which had been co-polymerised with 0.1% (w/v) gelatin. Stacking gels contained 5% polyacrylamide. The gels were run at 4°C for 16h at 90V. The gels were then incubated in washing buffer (50 mM Tris-HCl pH 7.5, 10mM CaCl2, O.O2% (W/V) NaN3, 2.5% (v/v) Triton X-100) at room temperature, 2x20 min to remove sodium dodecyl sulfate and overnight in developing buffer (50 mM Tris-HCl pH 7.5, 10mM CaCl2, O.O2% (w/v) NaN3, 1% (v/v) Triton X-100) at 37°C. […] The sites of gelatinase activity appeared as unstained bands on a blue background and were quantified by computerised image analysis through scanning densitometry with a PDI scanner (Pharmacia, Belgium) and the PDI software package. […]
(§2) Similar results were obtained when pure preparations of gelatinase B were tested or when gelatinase B was measured in the presence of D-penicillamine in body fluids or cell supernatants.
(§3) Figure 13. […] Gelatinase A (---) and B(_) activities in the CSF were measured by zymography in the absence or the presence of increasing concentrations of D-penicillamine. The scanning indices for each patient are calculated at the residual activity in the presence of inhibitor versus the activity without inhibitor. […]

[2] = test system: human monocytic cell line THP-1; assay: gelatinase B protein (zymography) and mRNA (northern blot) production in THP-1 cultures; type: cell-based; settings: THP-1, LPS 1µg/ml, RA 100nM or untreated; D-penicillamine 50 µg/ml; 16 h
Procedure: Figure 14. […] Cultures of the human monocytic cell line THP-1 were stimulated with lipopolysaccharide (LPS, 1µg/ml), retinoic acid (RA, 100nM) or left untreated (CO) in the presence or absence of D-penicillamine (DPEN, 50 µg/ml). After 16 h total RNA was extracted and gelatinase B mRNA was measured by northern blot analysis with a human probe (41) (a). Gelatinase B protein in the cell culture fluids was assayed by zymographic analysis on gelatin substrate gels (b).

chronic relapsing EAE = chronic relapsing EAE in Biozzi AB/H mice; type: in vivo; settings: 750 µg three times weekly from day 22 onwards
[3] = test system: hyperacute experimental allergic encephalomyelitis (EAE); assay: acute (hyperacute) EAE in SJL mice; settings: intraperitoneal, equivalent of 27 to 375 µg per mouse daily
Procedure: In both hind paws 50µl of this emulsion was injected on day 0. On day 0 and 2, 50µl B.pertussis (200x10^9 bacteria/ml) were injected intraveneously. […] The control group received injections with 0.9% NaCl, used as excipiens. The animals were daily monitored and the disease and mortality were scored.).

Gelatinase B [4] = molecular target: T1, Gelatinase B; assay: zymography of cerebrospinal fluid of MS / optic neuritis patients with inhibitor; type: biochemical; design: from tissue; host or cells: cerebrospinal fluid of patients with multiple sclerosis or optic neuritis; settings: CSF of MS patients, increasing concentrations
Procedure: as §1, §2, §3
Target sequence in this assay (P14780 94-707): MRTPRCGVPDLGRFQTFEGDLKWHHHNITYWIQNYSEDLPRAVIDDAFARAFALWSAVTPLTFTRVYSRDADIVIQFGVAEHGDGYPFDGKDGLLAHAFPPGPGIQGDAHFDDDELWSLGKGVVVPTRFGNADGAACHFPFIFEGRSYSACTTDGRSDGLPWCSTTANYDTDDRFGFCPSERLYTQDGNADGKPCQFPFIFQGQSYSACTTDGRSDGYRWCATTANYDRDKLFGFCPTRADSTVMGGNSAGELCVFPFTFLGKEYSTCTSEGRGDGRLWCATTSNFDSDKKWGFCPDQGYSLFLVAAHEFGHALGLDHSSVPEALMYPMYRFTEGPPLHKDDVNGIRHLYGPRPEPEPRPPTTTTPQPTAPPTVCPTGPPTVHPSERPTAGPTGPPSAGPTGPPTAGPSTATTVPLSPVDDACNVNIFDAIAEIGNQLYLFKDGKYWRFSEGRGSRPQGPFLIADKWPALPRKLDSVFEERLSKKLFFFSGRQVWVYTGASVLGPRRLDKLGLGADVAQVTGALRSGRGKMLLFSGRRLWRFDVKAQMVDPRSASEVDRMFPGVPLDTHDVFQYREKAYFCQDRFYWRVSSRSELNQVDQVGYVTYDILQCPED

[5] = molecular target: T3, gelatinase B from neutrophils (Homo sapiens, UniProt P14780); assay: gelatinase (inhibitor) microtiter plate assay with biotinylated gelatin; type: biochemical; design: endogenous in cells; host or cells: human neutrophils stimulated with lipopolysaccharide; conditioned medium; settings: qualitative statements
Procedure: The measurement of gelatinase activity was based on the detection of non-degraded biotinylated gelatin with a streptavidin-peroxidase conjugate. This test is based on the biotin-avidin method described by Sorbi et al. (25) but modified to a one plate assay (schematically represented in Fig. 1.). Gelatin (1mg/ml) was dissolved in 0.1 M sodium bicarbonate pH 8.3 by heating to 40°C. Biotin-N-hydroxysuccinimide ester was dissolved in dimethylsulfoxide (Me2SO) and was added to the gelatin in a 15-fold molar excess. The mixture was allowed to react overnight at 4°C and the biotinylated gelatin was then dialyzed against phosphate buffered saline (PBS). Neutrophil granulocyte (Neu) medium was collected from human neutrophils after stimulation with lipopolysaccharide (1µg/ml) overnight at 37°C in Minimal Essential Medium. Cells were removed by 10 min centrifugation at 1000 g. Purified gelatinase was obtained by one-step affinity chromatography of neutrophil medium on a gelatin-sepharose column as described (8).
Modified flat bottom 96-well ELISA plates were coated overnight with 0.5 µg/ml avidin in distilled water. The plates were then blocked with 0.3% bovine serum albumin (BSA, Sigma) in PBS for 1 hour at 37°C. Biotinylated gelatin was diluted to 50 µg/ml and 100µl was added to the avidin-coated wells. After incubation for one hour at 20°C, the plate was rinsed with PBS. Medium containing the secreted gelatinases from human neutrophils (dilution range 1/3-1/3^11) and the inhibitors were diluted in incubation buffer (50 mM Tris-HCl pH 7.5, 10 mM CaCl2, 0.02% (W/V) NaN3, 1% (V/V) Triton X-100) and 100 µl of each were mixed. 190 µl of the mixture was added to the gelatin-coated plates and allowed to digest the gelatin overnight at 37°C. The plates were then washed with PBS and each well was incubated with 100 µl peroxidase-conjugated-streptavidin at a 1:2000 dilution for 1 hour at 37°C. After rinsing the plate, the ABTS substrate was added (0.5 mg/ml solution containing 0.1 M citric acid, 0.2 M Na2HPO4, pH 4.3, 0.07 µl/ml 30% H2O2) and the optical density was read at 405 nm after 10 min. incubation at room temperature. Additional information on published test systems used here for comparison.
Gelatin is biotinylated and bound to avidin-coated microtiter plates. By addition of gelatinases the number of free biotin groups decreases and proportionally less streptavidin-peroxidase is bound to the residual substrate. Bound streptavidin-peroxidase activity is measured spectrophotometrically by reaction of peroxide with ABTS. Inhibition of gelatinase is obtained by the addition of inhibitor to a known amount of gelatinase prior to application to the plates. The peroxidase activity increases proportionally with the inhibitory activity.
Plates were first coated with 10µg/ml avidin and 50µg/ml biotinylated gelatin (theoretically saturating the avidin binding sites). As the sensitivity of the assay is dependent on the detection of the minimal amount of degraded biotinylated gelatin, we investigated wether decreasing the amount of biotin-gelatin (50 µg/ml-23 ng/ml) bound to the avidin-coated (10µg/ml) plate increased the sensitivity of the assay. […] Thus it was verified whether a decrease in the avidin coating could make the assay more sensitive (Fig. 2). […] In all further examples plates were coated with 0.5 µg/ml avidin and 50 µg/ml gelatin-biotin.
The titration curves of gelatinase inhibition were always related to a blanc curve and this for enzyme concentrations within the slope of the curve (vertical dotted lines Fig. 3). The decrease in enzyme activity to which the inhibitor-incubated sample corresponded was defined as the inhibition factor (IF).

[6] = molecular target: T3, gelatinase B from neutrophils; assay: zymography inhibition assay, inhibitor in developing buffer; type: biochemical; design: The 92 kDa neutrophil gelatinase is indicated with an arrowhead; endogenous in cells; host or cells: human neutrophils; purified from conditioned medium on gelatin-Sepharose; settings: qualitative statements
Procedure: Quantitative zymography was performed as described (7,8). Briefly, 40 µl of loading buffer was added to 40 µl of each sample and applied on 7.5% polyacrylamide gels which had been co-polymerised with 0.1% (w/v) gelatin. Stacking gels contained 5% polyacrylamide. The gels were run at 4°C for 16h at 90V. The gels were then incubated in washing buffer (50 mM Tris-HCl pH 7.5, 10mM CaCl2, O.O2% (W/V) NaN3, 2.5% (v/v) Triton X-100) at room temperature, 2x20 min to remove sodium dodecyl sulfate and overnight in developing buffer (50 mM Tris-HCl pH 7.5, 10mM CaCl2, O.O2% (w/v) NaN3, 1% (v/v) Triton X-100) at 37°C. The gels were then stained in Coomassie brilliant blue R-250 and destained in methanol/acetic acid. The sites of gelatinase activity appeared as unstained bands on a blue background and were quantified by computerised image analysis through scanning densitometry with a PDI scanner (Pharmacia, Belgium) and the PDI software package. For inhibition experiments, the inhibitors were dissolved in the developing buffer at the appropriate concentration. […] The enzyme activity was developed by staining of the substrate with Coomassie blue and quantification of the substrate digestion by scanning densitometry. […] The enzyme activity was developed by staining of the substrate with Coomassie blue and quantification of the substrate digestion by scanning densitometry. […]

T3 sequence (P14780 94-707): as above
Sequence of t-PA (P00750 36-562, species assumed): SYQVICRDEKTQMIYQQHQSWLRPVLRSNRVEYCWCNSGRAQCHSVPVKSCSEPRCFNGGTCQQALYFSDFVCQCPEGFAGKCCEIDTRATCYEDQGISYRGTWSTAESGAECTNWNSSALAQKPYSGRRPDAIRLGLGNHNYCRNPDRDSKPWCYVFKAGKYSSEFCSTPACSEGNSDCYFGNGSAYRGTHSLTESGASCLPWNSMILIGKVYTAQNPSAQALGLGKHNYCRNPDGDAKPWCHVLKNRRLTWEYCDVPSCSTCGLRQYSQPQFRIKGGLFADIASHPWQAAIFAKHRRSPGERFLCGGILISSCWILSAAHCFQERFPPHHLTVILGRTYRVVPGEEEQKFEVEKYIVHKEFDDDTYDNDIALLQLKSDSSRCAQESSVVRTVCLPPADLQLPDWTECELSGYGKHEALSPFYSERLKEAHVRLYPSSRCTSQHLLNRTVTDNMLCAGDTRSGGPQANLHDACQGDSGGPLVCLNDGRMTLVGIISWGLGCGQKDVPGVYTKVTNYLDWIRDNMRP

For `CC(C)(S)[C@@H](N)C(=O)O` [D-penicillamine], the IC50 (u-PA) was 93.8 µM, the IC50 (t-PA) was 121 µM and the IC50 (Gelatinase B [1]) was 20.1 µM. The “inhibition of Gelatinase A in cerebrospinal fluid (in words)” value (Gelatinase A) was “inhibited in a dose-dependent way”, the “spontaneous and induced levels of gelatinase B mRNA” value [2] was “remained constant” and the “spontaneous and induced levels of gelatinase B protein” value [2] was “remained constant”. For the same compound, the “disease recurrencies in chronic relapsing EAE” value (chronic relapsing EAE) was “abrogated the exacerbations; also recorded: abrogated the disease recurrencies”, the “development of disease symptoms in acute EAE” value [3] was “complete blockage; also recorded: inhibits in a dose-dependent way the development of disease symptoms” and the “inhibition of Gelatinase B in cerebrospinal fluid (in words)” value (Gelatinase B [4]) was “inhibited in a dose-dependent way”. The “gelatinase B inhibitory activity in the plate assay (in words)” value [5] was “inhibitor of gelatinase B” and the “inhibition of gelatinase B on zymography (in words)” value [6] was “inhibitor of gelatinase B”.
